Results reported in patent publication US11585779B2, “Biosensor and method of using the same for evaluation of antioxidant capacity” (Nanjing Agricultural University, priority 2017, dated 2023).

Test system: macrophage RAW264.7
Experiment: Evaluation of antioxidant capacity with macrophage RAW264.7 biosensor (PMA stimulation, differential pulse voltammetry)
Format: cell-based
Conditions: 0.6% solution in absolute ethanol; 100 ng/mL PMA, 10 min; 0.1 M PBS
Description: The electrochemical experiments in 3) can be a differential pulse voltammetry (DPV), and the DPV conditions can be as follows: scanning range: -0.2 to 0.6 V, amplitude: 0.05 V.
The relative antioxidant capacity value in 5) can be calculated by the following equation:
[formula] where RAC is the relative antioxidant capacity value, I0 is the peak current obtained in the presence of 100 ng/mL PMA, Is is the peak current in the presence of the test sample, and I is the peak current in the absence of PMA.
immersing a third biosensor in Tyrode's buffer at 37° C. for 10 min, washing the third biosensor with PBS buffer for 3 times, connecting the third biosensor to a third electrochemical workstation, and conducting an electrochemical experiment of the third biosensor in a solution containing 1.0 mM Fe(CN)6^3−, 1.0 mM Fe(CN)6^4− or 0.1 M PBS, recording the current signal, reading the peak current and marking as I.
In the following examples, the differential pulse voltammetry is selected as the electrochemical experiment method.
Positive control: a first biosensor was immersed in Tyrode's buffer at 37° C. (preparation of Tyrode's solution: 1000 mL Tyrode's solution: NaCl 8.0 g, 10% KCl 2.0 mL (0.2 g), 10% MgSO4.7H2O 2.6 mL (0.26 g), 5% NaH2PO4.2H2O 1.3 mL (0.065 g), NaHCO3 1.0 g, 1 M CaCl2 1.8 mL (0.2 g), glucose 1.0 g), and PMA was then added to a concentration of 100 ng/mL. 10 min later, the first biosensor was washed with PBS buffer for 3 times (phosphate buffered saline) at pH=7.4, and then was connected to the electrochemical workstation. The first biosensor was electrochemically detected in a solution containing 1.0 mM Fe(CN)6^3−, and the current signal was recorded and the peak current was read as I0=84.6 μA.
Blank control: a third biosensor was immersed in Tyrode's buffer at 37° C. […] The […] was electrochemically detected in a solution containing 1.0 mM Fe(CN)6^3−, and the current signal was recorded and the peak current was read as I=21.5 μA. […]
3) Electrochemical experiment: the second biosensor was used for electrochemical experiment in a PBS solution containing 1.0 mM Fe(CN)6^3−. Subsequently, the current signal and the peak current ls1 were recorded and read, respectively. […]
3) Electrochemical experiment: the biosensor IV was used for electrochemical experiment in a solution containing 1.0 mM Fe(CN)6^4−. Subsequently, the current signal was recorded and the peak current Is2 was read, where Is2=24.7 μA. […]
3) Electrochemical experiment: the biosensor was used for electrochemical experiment in a solution containing 0.1 M (mol/L) PBS. Subsequently, the current signal was recorded and the peak current Is3 was read, where Is3=26.5 μA. […]

O=C1O[C@H]([C@@H](O)CO)C(O)=C1O [VC, Vitamin C]
peak current Is4: 25.3 μA

Cc1c(C)c2c(c(C)c1O)CC[C@@](C)(CCC[C@H](C)CCC[C@H](C)CCCC(C)C)O2 [VE, Vitamin E]
peak current Is3: 26.5 μA | relative antioxidant value (RAC3): 92.2% | relative antioxidant value (RAC4): 94.2%
